Tested on: HOP-92
Assay: Growth inhibition of human HOP92 cells assessed as cell growth at 10 uM incubated for 48 hrs by sulforhodamine B assay relative to control
Assay type: functional
Details: HOP-92, 48 h, read-out: Activity

Q: For `COc1cc2cc(Oc3ccc(NC(=O)Nc4cc(C(F)(F)F)cc(C(F)(F)F)c4)cc3)c(C)nc2cc1OC`, which growth at 10 µM is on record?
A: Its growth at 10 µM is -25.4%.

Tested on: OVCAR-4
Assay: Growth inhibition of human OVCAR4 cells assessed as cell growth at 10 uM incubated for 48 hrs by sulforhodamine B assay relative to control
Assay type: functional
Details: OVCAR-4, 48 h, read-out: Activity

Q: `COc1cc2cc(Oc3ccc(NC(=O)Nc4cc(C(F)(F)F)cc(C(F)(F)F)c4)cc3)c(C)nc2cc1OC` was tested. Which growth at 10 µM did it give?
A: Its growth at 10 µM is 27.9%.

Tested on: MDA-MB-435
Assay: Growth inhibition of human MDA-MB-435 cells assessed as cell growth at 10 uM incubated for 48 hrs by sulforhodamine B assay relative to control
Assay type: functional
Details: MDA-MB-435, 48 h, read-out: Activity

Q: `COc1cc2cc(Oc3ccc(NC(=O)Nc4cc(C(F)(F)F)cc(C(F)(F)F)c4)cc3)c(C)nc2cc1OC` was tested. Which growth at 10 µM did it give?
A: The growth at 10 µM was -2.55%.

Tested on: OVCAR-3
Assay: Growth inhibition of human OVCAR3 cells assessed as cell growth at 10 uM incubated for 48 hrs by sulforhodamine B assay relative to control
Assay type: functional
Details: OVCAR-3, 48 h, read-out: Activity

Q: For `COc1cc2cc(Oc3ccc(NC(=O)Nc4cc(C(F)(F)F)cc(C(F)(F)F)c4)cc3)c(C)nc2cc1OC`, which growth at 10 µM is on record?
A: The growth at 10 µM was 1.71%.

Tested on: COLO 205
Assay: Growth inhibition of human COLO205 cells assessed as cell growth at 10 uM incubated for 48 hrs by sulforhodamine B assay relative to control
Assay type: functional
Details: COLO 205, 48 h, read-out: Activity

Q: How did the growth at 10 µM turn out when `COc1cc2cc(Oc3ccc(NC(=O)Nc4cc(C(F)(F)F)cc(C(F)(F)F)c4)cc3)c(C)nc2cc1OC` was run?
A: Its growth at 10 µM is -81.2%.

Tested on: 786-0
Assay: Growth inhibition of human 786-0 cells assessed as cell growth at 10 uM incubated for 48 hrs by sulforhodamine B assay relative to control
Assay type: functional
Details: 786-0, 48 h, read-out: Activity

Q: How did the growth at 10 µM turn out when `COc1cc2cc(Oc3ccc(NC(=O)Nc4cc(C(F)(F)F)cc(C(F)(F)F)c4)cc3)c(C)nc2cc1OC` was run?
A: Its growth at 10 µM is -16.6%.

Tested on: SK-MEL-5
Assay: Growth inhibition of human SK-MEL-5 cells assessed as cell growth at 10 uM incubated for 48 hrs by sulforhodamine B assay relative to control
Assay type: functional
Details: SK-MEL-5, 48 h, read-out: Activity

Q: For `COc1cc2cc(Oc3ccc(NC(=O)Nc4cc(C(F)(F)F)cc(C(F)(F)F)c4)cc3)c(C)nc2cc1OC`, which growth at 10 µM is on record?
A: The growth at 10 µM was -58.5%.

Tested on: ACHN
Assay: Growth inhibition of human ACHN cells assessed as cell growth at 10 uM incubated for 48 hrs by sulforhodamine B assay relative to control
Assay type: functional
Details: read-out: Activity

Q: With `COc1cc2cc(Oc3ccc(NC(=O)Nc4cc(C(F)(F)F)cc(C(F)(F)F)c4)cc3)c(C)nc2cc1OC` as the compound, how does the growth at 10 µM read?
A: The growth at 10 µM was 5.82%.

Tested on: CAKI-1
Assay: Growth inhibition of human Caki1 cells assessed as cell growth at 10 uM incubated for 48 hrs by sulforhodamine B assay relative to control
Assay type: functional
Details: CAKI-1, 48 h, read-out: Activity

Q: `COc1cc2cc(Oc3ccc(NC(=O)Nc4cc(C(F)(F)F)cc(C(F)(F)F)c4)cc3)c(C)nc2cc1OC` was tested. Which growth at 10 µM did it give?
A: The growth at 10 µM was 6.4%.

Tested on: T47D
Assay: Growth inhibition of human T47D cells assessed as cell growth at 10 uM incubated for 48 hrs by sulforhodamine B assay relative to control
Assay type: functional
Details: read-out: Activity

Q: With `COc1cc2cc(Oc3ccc(NC(=O)Nc4cc(C(F)(F)F)cc(C(F)(F)F)c4)cc3)c(C)nc2cc1OC` as the compound, how does the growth at 10 µM read?
A: The growth at 10 µM was 7.52%.

Tested on: SNB-19
Assay: Growth inhibition of human SNB19 cells assessed as cell growth at 10 uM incubated for 48 hrs by sulforhodamine B assay relative to control
Assay type: functional
Details: SNB-19, 48 h, read-out: Activity

Q: Which growth at 10 µM does the source give for `COc1cc2cc(Oc3ccc(NC(=O)Nc4cc(C(F)(F)F)cc(C(F)(F)F)c4)cc3)c(C)nc2cc1OC` here?
A: The growth at 10 µM was 15.5%.

Tested on: UO-31
Assay: Growth inhibition of human UO31 cells assessed as cell growth at 10 uM incubated for 48 hrs by sulforhodamine B assay relative to control
Assay type: functional
Details: UO-31, 48 h, read-out: Activity

Q: `COc1cc2cc(Oc3ccc(NC(=O)Nc4cc(C(F)(F)F)cc(C(F)(F)F)c4)cc3)c(C)nc2cc1OC` was tested. Which growth at 10 µM did it give?
A: The growth at 10 µM was 11.6%.

Tested on: NCI-H226
Assay: Growth inhibition of human NCI-H226 cells assessed as cell growth at 10 uM incubated for 48 hrs by sulforhodamine B assay relative to control
Assay type: functional
Details: NCI-H226, 48 h, read-out: Activity

Q: How did the growth at 10 µM turn out when `COc1cc2cc(Oc3ccc(NC(=O)Nc4cc(C(F)(F)F)cc(C(F)(F)F)c4)cc3)c(C)nc2cc1OC` was run?
A: The growth at 10 µM was -10.2%.

Tested on: OVCAR-5
Assay: Growth inhibition of human OVCAR5 cells assessed as cell growth at 10 uM incubated for 48 hrs by sulforhodamine B assay relative to control
Assay type: functional
Details: OVCAR-5, 48 h, read-out: Activity

Q: How did the growth at 10 µM turn out when `COc1cc2cc(Oc3ccc(NC(=O)Nc4cc(C(F)(F)F)cc(C(F)(F)F)c4)cc3)c(C)nc2cc1OC` was run?
A: Its growth at 10 µM is 14.6%.

Tested on: A549
Assay: Growth inhibition of human A549/ATCC cells assessed as cell growth at 10 uM incubated for 48 hrs by sulforhodamine B assay relative to control
Assay type: functional
Details: A549, 48 h, read-out: Activity

Q: With `COc1cc2cc(Oc3ccc(NC(=O)Nc4cc(C(F)(F)F)cc(C(F)(F)F)c4)cc3)c(C)nc2cc1OC` as the compound, how does the growth at 10 µM read?
A: The growth at 10 µM was 5.93%.

Tested on: UACC-62
Assay: Growth inhibition of human UACC62 cells assessed as cell growth at 10 uM incubated for 48 hrs by sulforhodamine B assay relative to control
Assay type: functional
Details: UACC-62, 48 h, read-out: Activity

Q: Which growth at 10 µM does the source give for `COc1cc2cc(Oc3ccc(NC(=O)Nc4cc(C(F)(F)F)cc(C(F)(F)F)c4)cc3)c(C)nc2cc1OC` here?
A: The growth at 10 µM was -34.6%.

Reference: ChEMBL document CHEMBL3994622, “Design and synthesis of new RAF kinase-inhibiting antiproliferative quinoline derivatives. Part 2: Diarylurea derivatives” (Eur J Med Chem, 2017)
